Values joined by “and” are separate entries in the source; they are usually repeats but may differ in a detail not shown here. Identical values can stand only once.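 Assay format: 96-well plates, 48-hour exposure. Abbreviation: GI50, concentration required for 50% inhibition of growth. The concentration for full growth arrest is given as TGI.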
Assays:
Assay in all cases: NCI anticancer screen, dose series, 48 h
A549 NSCLC = test system: A549 NSCLC
EKVX NSCLC = test system: EKVX NSCLC
IGROV1 ovarian = test system: IGROV1 ovarian
K-562 leukemia = test system: K-562 leukemia
NCI-H23 lung = test system: NCI-H23 lung
SK-MEL-28 melanoma = test system: SK-MEL-28 melanoma
SW-620 colon = test system: SW-620 colon
U251 CNS = test system: U251 CNS
UACC-257 melanoma = test system: UACC-257 melanoma
UACC-62 melanoma = test system: UACC-62 melanoma

| SMILES | TGI (A549 NSCLC) | TGI (EKVX NSCLC) | TGI (IGROV1 ovarian) | TGI (K-562 leukemia) [µM] | TGI (NCI-H23 lung) | TGI (SK-MEL-28 melanoma) | TGI (SW-620 colon) | TGI (U251 CNS) | TGI (UACC-257 melanoma) | TGI (UACC-62 melanoma) | GI50 (A549 NSCLC) [µM] | GI50 (EKVX NSCLC) [µM] | GI50 (IGROV1 ovarian) | GI50 (K-562 leukemia) [µM] | GI50 (NCI-H23 lung) [µM] | GI50 (SW-620 colon) | GI50 (U251 CNS) [µM] | GI50 (UACC-257 melanoma) | GI50 (UACC-62 melanoma) [µM] | GI50 (SK-MEL-28 melanoma) [µM] |
| --- | --- | --- | --- | --- | --- | --- | --- | --- | --- | --- | --- | --- | --- | --- | --- | --- | --- | --- | --- | --- |
| Cc1cc(C)c(C(=O)O)c(N)c1O | > 100 µM | > 100 µM | > 100 µM | > 100 | > 100 µM | > 100 µM | > 100 µM | > 100 µM | > 100 µM | > 100 µM |  |  |  |  |  |  |  |  |  |  |
| Nn1c(CCCl)nc2c(Br)cc(Br)cc2c1=O | > 100 µM | > 93.7 µM | 60.3 µM | > 30.6 | 62.8 µM | > 100 µM | > 55 µM | > 58 µM | > 100 µM | > 83.8 µM |  |  |  |  |  |  |  |  |  |  |
| CCCCCCCC1c2cc3[nH]c(cc4nc(cc5[nH]c(cc(n2)[C@@]1(C)CC(=O)N(C)C)c(C)c5CCC(=O)O)C(CCC(=O)O)=C4C)cc3C (some centres undefined) | > 100 µM | > 100 µM | 39.6 µM | 56.7 | 34.1 µM | 35.8 µM | > 100 µM | 32.9 µM | 35.2 µM | 33.1 µM |  |  |  |  |  |  |  |  |  |  |
| NC1=NC(=O)N2CC12 (centres undefined) | > 100 µM and 3450 µM | > 100 µM and 603 µM | > 100 µM and 1100 µM | > 100 | > 100 µM and 2640 µM | > 100 µM and 196 µM | > 100 µM and 143 µM | > 100 µM and 620 µM | > 100 µM and 245 µM | > 100 µM and 408 µM | 890 | 123 | 86.8 µM and 261 µM | 38.9 | 737 | 48.2 µM and 58.4 µM | 154 | 66.6 µM and 85 µM | 130 |  |
| CC1(C)CCC(=O)c2c(O)ccc(O)c21 | > 100 µM | > 100 µM | > 100 µM | > 100 | > 100 µM | > 100 µM | > 100 µM | > 100 µM | 81.9 µM | > 100 µM |  |  |  |  |  |  |  |  |  |  |
| CS(=O)(=O)CCNCc1ccc(-c2ccc3ncnc(Nc4ccc(OCc5ccccc5)c(C(F)(F)F)c4)c3c2)o1 | > 25 µM | > 25 µM | > 22.2 µM | 18.2 | > 19.4 µM | 8.83 µM | 8.66 µM | 8.92 µM | 9.09 µM | 8.66 µM | 8.23 | 7.87 | 6.36 µM | 6.83 | 6.37 | 4.62 µM | 4.49 | 4.74 µM | 4.76 | 4.43 |
| COC(=O)C1=CC(O)CCC1c1ccc(OC)cc1 (centres undefined) | > 100 µM | > 100 µM | > 100 µM | > 100 | > 100 µM | > 100 µM | > 100 µM | > 100 µM | > 100 µM | > 100 µM |  |  |  |  |  |  |  |  |  |  |
| COc1cc2c(c(OC)c1OC)-c1ccc(OC)c(=O)cc1[C@@H](NC(=O)CCl)CC2 | 25.6 µM | 23.7 µM | 21.9 µM | > 100 | > 33 µM | 53.8 µM | 12 µM | 2.02 µM | 31.8 µM | 20.1 µM | < 0.0141 | < 0.0191 | < 0.01 µM | < 0.01 | < 0.01 | < 0.01 µM | < 0.01 | 1.16 µM | < 0.01 | 0.304 |

From PubChem BioAssay (NCI)
